Data: patent US20100022491A1, “4-HYDROXY-2-OXO-2,3-DIHYDRO-1,3-BENZOTHIAZOL-7YL COMPOUNDS FOR MODULATION OF B2-ADRENORECEPTOR ACTIVITY” (ASTRAZENECA AB, priority 2006, published 2010)
Structures can show the parent of a compound that is named as a salt.

Experiments:
[1] = molecular target: T1, recombinant human adrenergic beta 1 receptors (Homo sapiens, UniProt P08588); assay: Adrenergic β1 selectivity binding assay ([125I]-Iodocyanopindolol); details: inhibition of [125I]-Iodocyanopindolol (0.036 nM) binding; read-out: β1 bind p IC50 (converted)
T1 construct: purchased Euroscreen
Method in brief: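 Recombinant human β1 membranes in HEPES buffer pH 7.4 with 120 mM NaCl were incubated 2 hours at room temperature with 0.036 nM [^125I]-Iodocyanopindolol. Nonspecific binding defined by 10 μM propranolol; bound radioactivity counted after filtration. pIC50 from four-parameter logistic fit.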

[2] = molecular target: T2, recombinant human Dopamine Subtype D2s receptors (Homo sapiens, UniProt P14416); assay: Dopamine D2 selectivity binding assay ([3H]-spiperone); details: inhibition of [3H]-spiperone (0.16 nM) binding; read-out: D2 bind pIC50 (converted)
T2 construct: purchased Perkin Elmer
Method in brief: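 Recombinant human D2s membranes incubated 2 h at room temperature with 0.16 nM [3H]-spiperone in HEPES/EDTA/NaCl/gelatin buffer, pH 7.4; 10 μM haloperidol defined non-specific binding. Filter-bound radioactivity counted after cold washes. pIC50 from 4-parameter logistic fit of NSB-corrected specific binding.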

T1 sequence (P08588 whole entry): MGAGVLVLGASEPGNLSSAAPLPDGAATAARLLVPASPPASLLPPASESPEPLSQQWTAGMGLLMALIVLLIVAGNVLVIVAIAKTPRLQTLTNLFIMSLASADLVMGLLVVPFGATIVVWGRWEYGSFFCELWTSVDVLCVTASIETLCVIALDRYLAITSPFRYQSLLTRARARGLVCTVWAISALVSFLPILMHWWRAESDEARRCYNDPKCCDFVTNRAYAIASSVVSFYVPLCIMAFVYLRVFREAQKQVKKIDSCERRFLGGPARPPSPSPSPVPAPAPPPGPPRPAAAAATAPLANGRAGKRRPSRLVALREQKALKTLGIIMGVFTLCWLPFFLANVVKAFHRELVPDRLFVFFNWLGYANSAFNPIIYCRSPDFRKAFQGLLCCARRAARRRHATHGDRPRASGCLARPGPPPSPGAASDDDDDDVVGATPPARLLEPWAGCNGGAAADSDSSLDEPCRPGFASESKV
T2 sequence (P14416 1-414 isoform P14416-2): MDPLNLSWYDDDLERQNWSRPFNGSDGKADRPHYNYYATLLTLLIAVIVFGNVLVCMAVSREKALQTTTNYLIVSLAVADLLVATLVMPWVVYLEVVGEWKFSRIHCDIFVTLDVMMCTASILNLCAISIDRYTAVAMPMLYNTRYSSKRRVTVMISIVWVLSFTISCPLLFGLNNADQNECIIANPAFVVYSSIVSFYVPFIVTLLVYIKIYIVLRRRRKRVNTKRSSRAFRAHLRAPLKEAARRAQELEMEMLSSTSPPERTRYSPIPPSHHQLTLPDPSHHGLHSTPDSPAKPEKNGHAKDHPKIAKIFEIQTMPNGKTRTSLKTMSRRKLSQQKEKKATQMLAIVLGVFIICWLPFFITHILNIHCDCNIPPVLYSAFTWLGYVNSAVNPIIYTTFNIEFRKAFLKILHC

Row | IC50 [1] [nM] | IC50 [2] [nM] | Compound
1 | 3160 | 79.4 | O=C(CCNCCc1ccc(O)c(Cl)c1)N(CCNCCc1ccc(O)c2[nH]c(=O)sc12)C1CCCCC1 [Example 89, N^3-[2-(3-chloro-4-hydroxyphenyl)ethyl]-N^1-cyclohexyl-N^1-(2-{[2-(4-hydroxy-2-oxo-2,3-dihydro-1,3-benzothiazol-7-yl)ethyl]amino}ethyl)-β-alaninamide bis-trifluoroacetic acid salt]
2 | 2510 | 2000 | O=C(CCNCCc1ccccc1)N(CCNCCc1ccc(O)c2[nH]c(=O)sc12)C1CCC(F)(F)CC1 [Example 4, N-(4,4-Difluorocyclohexyl)-N-(2-{[2-(4-hydroxy-2-oxo-2,3-dihydro-1,3-benzothiazol-7-yl)ethyl]amino}ethyl)-N^3-(2-phenylethyl)-β-alaninamide bis-trifluoroacetic acid salt]
3 | 794 | 39.8 | O=C(CCNCCc1ccc(O)c2[nH]c(=O)sc12)N(CCNCCc1ccc(O)c2[nH]c(=O)sc12)C1CCCCCC1 [Example 87, bis-trifluoroacetic acid salt]
4 | 2510 | 200 | COc1ccc(CCNCCC(=O)N(CCNCCc2ccc(O)c3[nH]c(=O)sc23)C2CCCCCC2)cc1OC [Example 86, N^1-Cycloheptyl-N^3-[2-(3,4-dimethoxyphenyl)ethyl]-N^1-(2-{[2-(4-hydroxy-2-oxo-2,3-dihydro-1,3-benzothiazol-7-yl)ethyl]amino}ethyl)-β-alaninamide bis-trifluoroacetic acid salt]
5 | 3980 | 39.8 | CC1(C)CCC(N(CCNCCc2ccc(O)c3[nH]c(=O)sc23)C(=O)CCNCCc2cccc(O)c2)CC1 [Example 91, N^1-(4,4-Dimethylcyclohexyl)-N^1-(2-{[2-(4-hydroxy-2-oxo-2,3-dihydro-1,3-benzothiazol-7-yl)ethyl]amino}ethyl)-N^3-[2-(3-hydroxyphenyl)ethyl]-β-alaninamide bis-trifluoroacetic acid salt]
6 | 2510 | 79.4 | Cc1cccc(CCNCCC(=O)N(CCNCCc2ccc(O)c3[nH]c(=O)sc23)C2CCCCCC2)c1 [Example 85, N^1-Cycloheptyl-N^1-(2-{[2-(4-hydroxy-2-oxo-2,3-dihydro-1,3-benzothiazol-7-yl)ethyl]amino}ethyl)-N^3-[2-(3-methylphenyl)ethyl]-β-alaninamide bis-trifluoroacetic acid salt]
7 | 5010 | 398 | O=C(CCNCCc1ccccc1)N(CCNCCc1ccc(O)c2[nH]c(=O)sc12)C1CCCCC1 [Example 5, N-Cyclohexyl-N-(2-{[2-(4-hydroxy-2-oxo-2,3-dihydro-1,3-benzothiazol-7-yl)ethyl]amino}ethyl)-N^3-(2-phenylethyl)-β-alaninamide bis-trifluoroacetic acid salt]
8 | 200 | 79.4 | O=C(CCNCCc1cccc(O)c1)N(CCNCCc1ccc(O)c2[nH]c(=O)sc12)C1CCCCCCC1 [Example 90, N^1-Cyclooctyl-N^1-(2-{[2-(4-hydroxy-2-oxo-2,3-dihydro-1,3-benzothiazol-7-yl)ethyl]amino}ethyl)-N^3-[2-(3-hydroxyphenyl)ethyl]-β-alaninamide bis-trifluoroacetic acid salt]
9 | 6310 | 79.4 | O=C(CCNCCc1ccc2c(c1)OCCO2)N(CCNCCc1ccc(O)c2[nH]c(=O)sc12)C1CCCCCC1 [Example 88, N-Cycloheptyl-N^3-[2-(2,3-dihydro-1,4-benzodioxin-6-yl)ethyl]-N^1-(2-{[2-(4-hydroxy-2-oxo-2,3-dihydro-1,3-benzothiazol-7-yl)ethyl]amino}ethyl)-β-alaninamide bis-trifluoroacetic acid salt]
